Data as given in patent US10815276B2, “Cell penetrating peptides and methods of making and using thereof” (Entrada Therapeutics, Inc., priority 2014, dated 2020).
Starred links: 1 amine or outer side, 2 acyl side, 3 side chain; linkers in the order of their positions; H or OH if unused. Positions of bridges follow the written chain, without caps; N, C: chain ends. Non-standard residues stand in square brackets, D forms with d. Residues, ends and D or L forms follow the SMILES beside them. Trimesoyl = O=C(c1cc(C(=O)[*:2])cc(C(=O)[*:3])c1)[*:1]; d(pT) = C[C@H](OP(=O)(O)O)[C@@H](N)C(=O)O; 2Nal = N[C@@H](Cc1ccc2ccccc2c1)C(=O)O; Pip = O=C(O)[C@@H]1CCCCN1; Dap = NC[C@H](N)C(=O)O; Sar = CNCC(=O)O

Assays:
HeLa cells [1] = assay: MTT proliferation assay with Pin1 inhibitors; assay type: cell-based, human; conditions: 3-day treatment at 20 μM
Method: HeLa cells (100 μL/each well, 5×10^4 cells/mL) were seeded in a 96-well culture plate and allowed to grow overnight in DMEM supplemented with 10% FBS. […] After that, 10 μL of a MTT stock solution (5 mg/mL) was added into each well. The plate was incubated at 37° C. for 4 h and 100 μL of SDS-HCl solubilizing solution was added into each well, followed by thorough mixing. The plate was incubated at 37° C. overnight and the absorbance of the formazan product was measured at 570 nm on a Molecular Devices Spectramax M5 plate reader. Each experiment was performed in triplicates and the cells untreated with peptide were used as control.

HeLa cells [2] = assay: Cellular uptake by flow cytometry; assay type: cell-based, human; conditions: 5 μM FITC-labeled peptide, 2 h
Method: The cellular uptake efficiency of peptide 37, peptide 1, and a previously reported membrane-impermeable monocyclic Pin1 inhibitor (Table 18, peptide 46) was assessed by incubating HeLa cells with the FITC-labeled peptides (5 μM) for 2 h and quantifying the total intracellular fluorescence by flow cytometry analysis. […] By contrast, cells treated with peptides 1 and 37 gave MFI values of 2562 and 8792, respectively. Thus, peptide 37 is internalized by HeLa cells ˜4-fold more efficiently than peptide 1. Presumably, the negative charged phosphate group of peptide 1 interacted electrostatically with the positively charged CPP motif and reduced the cellular uptake efficiency of the latter.

Pin1 [3] = molecular target: T1, Pin1 (Homo sapiens, UniProt Q13526, S16A/Y23A); assay: Fluorescence anisotropy binding to Pin1
T1 construct: The full-length human S16A/Y23A mutant Pin1 was expressed and purified from E. coli; made in house
T1 sequence (Q13526 whole entry S16A/Y23A): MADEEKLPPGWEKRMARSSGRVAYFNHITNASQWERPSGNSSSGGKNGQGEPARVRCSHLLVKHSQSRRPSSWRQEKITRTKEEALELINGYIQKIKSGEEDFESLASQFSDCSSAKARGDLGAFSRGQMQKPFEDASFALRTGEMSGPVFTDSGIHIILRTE
Method: The gene coding for the catalytic domain of PTP1B (amino acids 1-321) was amplified by the polymerase chain reaction using PTP1B cDNA as template and oligonucleotides 5′-[…]-3′ and 5′-[…]-3′ as primers. […] Expression and purification of the ybbR-tagged PTP1B were carried out as previously described (Ren, L et al. Biochemistry 2011, 50, 2339-2356). […] The reaction mixture was passed through a G-25 fast-desalting column equilibrated in 30 mM HEPES, pH 7.4, 150 mM NaCl to remove any free dye molecules. The full-length human S16A/Y23A mutant Pin1 was expressed and purified from E. coli as previously described (Liu, T et al. J. Med. Chem. 2010, 53, 2494-2501).
FA experiments were carried out by incubating 100 nM FITC-labeled peptide with varying concentrations of protein in 20 mM HEPES (pH 7.4), 150 mM NaCl, 2 mM magnesium acetate, and 0.1% bovine serum albumin (BSA) for 2 h at room temperature. The FA values were measured on a Molecular Devices Spectramax M5 plate reader, with excitation and emission wavelengths at 485 and 525 nm, respectively. Equilibrium dissociation constants (KD) were determined by plotting the FA values as a function of protein concentration and fitting the curve to the following equation:
(§1) [formula] where Y is the FA value at a given protein concentration x, L is the peptide concentration, Qb/Qf is the correction factor for fluorophore-protein interaction, Amax is the maximum FA value when all of the peptides are bound to protein, while Amin is the minimum FA value when all of the peptides are free. FA competition assay was performed by incubating 100 nM FITC-labeled Pin1 inhibitor 5 with 1 μM Pin1, followed by the addition of 0-5 μM unlabeled inhibitor. The FA values were measured similarly on a pate reader. IC50 values were obtained by plotting the FA values against the competitor concentration and curve fitting using the four-parameter dose-response inhibition equation (Prism 6, GraphPad).

Pin1 [4] = molecular target: T1, Pin1; assay: FA competition with FITC-labeled inhibitor 5; assay type: binding; conditions: 0.1 μM labeled inhibitor 5, 1 μM Pin1
Method: FIGS. 32A and 32B display the competition for binding to Pin1 by inhibitors 5 and 7. Each reaction contained 0.1 μM FITC-labeled inhibitor 5, 1 μM Pin1, and 0-5 μM unlabeled inhibitor 5 […] or inhibitor 7 (FIG. 32B) and the FA value was measured and plotted against the competitor concentration.
as §1

HeLa cells [5] = conditions: read-out: IC50 of HeLa cell growth; MTT
Description: The effect of peptide 37 on the growth of HeLa cells was examined by using the MTT cell viability assay.

HeLa cells [6] = assay: Western blot of PML protein level; assay type: cell-based, human; conditions: 5 μM
Method: FIGS. 38A, 38B, 38C, and 38D display cellular activity of peptide 37. (FIG. 38A) Cellular uptake of peptides 1, 37, and 46 (5 μM) by HeLa cells as analyzed by flow cytometry. MFI, mean fluorescence intensity; none, untreated cells (no peptide). (FIG. 38B) Anti-proliferative effect of peptides 37, 46, and 47 on HeLa cells as measured by MTT assay. (FIG. 38C) Western blots showing the effect of peptides 1, 37 and 47 on the protein level of PML in HeLa cells. β-Actin was used as loading control. (FIG. 38D) Quantification of western blot results from (FIG. 38C). Data reported were after background subtraction and represent the mean±SD from 3 independent experiments.
Finally, to ascertain that Pin1 is the molecular target of peptide 37 in vivo, the intracellular protein level of a well-established Pin1 substrate, […] (PML), was examined by western blot analysis. Pin1 negatively regulates the PML level in a phosphorylation-dependent manner and inhibition of Pin1 activity is expected to stabilize PML and increase its intracellular level. […] The effect was already significant at 0.2 μM inhibitor (1.8-fold increase in the PML level) and plateaued at ˜1 μM (3.3-fold increase). Again, bicyclic peptide 47 had no effect under the same conditions, while peptide 1 (the positive control, at 5 μM) increased the PML level by 3.1-fold.

[7] = test system: mouse ventricular cardiac myocytes; assay: Live-cell confocal microscopy of cardiomyocytes; assay type: cell-based; conditions: 5 μM peptide or 6 μM conjugate, 3 h
Method: FIGS. 35A, 35B, 35C, and 35D display live cell confocal images of mouse ventricular cardiac myocytes after treatment for 3 h with 5 μM c(FΦRRRRQ)-K(FITC) (FIG. 35A) and c(fΦRrRrQ)-K(FITC) (FIG. 35B).
The disclosed cyclic CPPs are very effective in delivering proteins into cardiomyocytes. Fluorescein isothiocyanate (FITC)-labeled cyclic CPPs [c(FΦRRRRQ)-K(FITC)-NH2 and c(fΦRrRrQ)-K(FITC)-NH2] were synthesized and their internalization into mouse ventricular cardiac myocytes was tested by treating the cells with 5 μM FITC-labeled peptide for 3 h. After washing away the extracellular peptides, the internalization of CPPs was examined by fluorescent live-cell confocal microscopy. […] Whether the cyclic CPPs are capable of transporting full-length proteins into cardiac muscle cells was tested. Calmodulin (with an engineered Thr5Cys), a multifunctional calcium-binding messenger protein, was conjugated to c(FΦRRRRQ)-C-NH2 at the Cys residue near N-terminus through a disulfide bond. The disulfide exchange reaction is highly specific, efficient, and reversible. Further, upon entering the cytosol of cells, the disulfide linkage is expected to be reduced to release the native protein (FIG. 35c). The CPP-protein conjugate was chemically labeled on amino-groups with cyanine3, which permits visualization of the internalized calmodulin. […]

C[C@@H]1NC(=O)[C@H](CCCNC(=N)N)NC(=O)[C@H](Cc2ccc3ccccc3c2)NC(=O)[C@@H]2CCCCN2C(=O)[C@@H]([C@H](C)OP(=O)(O)O)NC(=O)CN(C)C(=O)[C@@H](C)NC(=O)c2cc3cc(c2)C(=O)NC[C@H](NC(=O)[C@@H](C)NC1=O)C(=O)N[C@@H](Cc1ccccc1)C(=O)N[C@@H](Cc1ccc2ccccc2c1)C(=O)N[C@@H](CCCNC(=N)N)C(=O)N[C@@H](CCCNC(=N)N)C(=O)N[C@@H](CCCNC(=N)N)C(=O)N[C@@H](CCCNC(=N)N)C(=O)N[C@H](C(=O)N[C@@H](CCCCN)C(N)=O)CNC3=O [Peptide 1, bicyclo[Tm-(D-Ala-Sar-D-pThr-Pip-Nal-Arg-Ala-D-Ala)-Dap-(Phe-Nal-Arg-Arg-Arg-Arg-Dap)]-Lys] ([dA][Sar][d(pT)][Pip][2Nal]RA[dA][Dap]F[2Nal]RRRR[Dap]K-NH2; linker N-9-16 via Trimesoyl)
Inhibition of cell growth (HeLa cells [1]): 45% | Mean fluorescence intensity (MFI) (HeLa cells [2]): 2562 | Improvement of inhibitor potency vs peptide 6 (Pin1 [3]): ~2 fold | Kd (Pin1 [3]; FITC-labeled peptide, FA analysis): 0.072 µM | Competition with FITC-labeled inhibitor 5 for binding to Pin1 (Pin1 [4]): competed | IC50 (HeLa cells [5]): 1.8 µM | Increase in the PML level (HeLa cells [6]): 3.1 fold

c(fΦRrRrQ)-K(FITC)-NH2
Internalization into cardiac muscle cells (confocal) [7]: efficient internalization
